From the CheMixHub viscosity set
“And” between values parts separate entries of the source, which are not always exact repeats. Identical values can stand only once.

Assay: xn = mol fraction of the nth substance listed

COCCOCCO + CCOC(C)(C)C
viscosity [mPa·s], 101 kPa
Settings	293.15 K	298.15 K	303.15 K
x2 = 0.0501	3.519	3.231	2.865
x2 = 0.1	3.158	2.906	2.589
x2 = 0.1459	2.847	2.627	2.351
x2 = 0.1998	2.518	2.328	2.097
x2 = 0.2556	2.218	2.06	1.862
x2 = 0.3031	1.991	1.855	1.683
x2 = 0.3521	1.784	1.669	1.52
x2 = 0.4004	1.605	1.506	1.377
x2 = 0.4511	1.438	1.355	1.244
x2 = 0.4998	1.299	1.227	1.13
x2 = 0.5628	1.142	1.082	1.001
x2 = 0.5997	1.062	1.007	0.934
x2 = 0.6621	0.942	0.894	0.833
x2 = 0.6997	0.879	0.834	0.779
x2 = 0.7411	0.816	0.773	0.725
x2 = 0.7995	0.736	0.697	0.657
x2 = 0.8401	0.687	0.651	0.616
x2 = 0.8998	0.623	0.591	0.56
x2 = 0.9498	0.575	0.545	0.518

NC(N)=O + C[N+](C)(C)CCO.[Cl-]
viscosity
Settings	100 kPa	101 kPa
293.15 K, x2 = 0.326	1696 mPa·s	–
298.15 K, x2 = 0.33	952.7 mPa·s	–
298.15 K, x2 = 0.333	750 mPa·s and 1264 mPa·s	859.5 mPa·s
298.15 K, x2 = 0.3333	–	748.1 mPa·s
303 K, x2 = 0.3333	–	427.4 mPa·s
303.15 K, x1 = 0.7	–	893 mPa·s
303.15 K, x2 = 0.326	635.5 mPa·s	–
303.15 K, x2 = 0.33	628.9 mPa·s	536.9 mPa·s
303.15 K, x2 = 0.333	562.7 mPa·s	–
303.15 K, x2 = 0.3333	–	511.6 mPa·s
308 K, x2 = 0.333	–	402.8 mPa·s
308 K, x2 = 0.3333	–	310.5 mPa·s
308.15 K, x2 = 0.326	414.6 mPa·s	–
308.15 K, x2 = 0.33	421.9 mPa·s	–
308.15 K, x2 = 0.333	–	348.2 mPa·s
308.15 K, x2 = 0.3333	–	351.5 mPa·s
313 K, x2 = 0.333	–	228 mPa·s
313 K, x2 = 0.3333	–	225.8 mPa·s
313.15 K, x2 = 0.326	280.7 mPa·s	–
313.15 K, x2 = 0.33	314 mPa·s	242.5 mPa·s
313.15 K, x2 = 0.333	296.3 mPa·s	–
313.15 K, x2 = 0.3333	–	243 mPa·s
318 K, x2 = 0.3333	–	163.3 mPa·s
318.15 K, x2 = 0.326	196.4 mPa·s	–
318.15 K, x2 = 0.33	224.4 mPa·s	–
318.15 K, x2 = 0.333	244.7 mPa·s	175.1 mPa·s
318.15 K, x2 = 0.3333	–	169.6 mPa·s
323 K, x2 = 0.333	–	105.6 mPa·s
323 K, x2 = 0.3333	–	121 mPa·s
323.15 K, x1 = 0.7	–	197 mPa·s
323.15 K, x2 = 0.326	142 mPa·s	–
323.15 K, x2 = 0.33	161.2 mPa·s	–
323.15 K, x2 = 0.333	171.5 mPa·s and 198.4 mPa·s	–

CCCCCCCCCCO + CCCCCCCO
viscosity [mPa·s], 101.8 kPa
Settings	x2 = 0.1302	x2 = 0.3682	x2 = 0.5771	x2 = 0.7604	x2 = 0.9256
298.15 K	10.82	9.364	8.193	7.155	6.307
308.15 K	7.586	6.635	5.836	5.18	4.596
318.15 K	5.438	4.801	4.264	3.812	3.413

CC(C)[C@@H]1CC[C@@H](C)C[C@H]1O + CC(=O)O
100 kPa, x1 = 0.5
Settings	viscosity [mPa·s]
293.15 K	11.3
298.15 K	8.691
303.15 K	6.904
308.15 K	5.59
313.15 K	4.564
318.15 K	3.843
323.15 K	3.251

CC(C)[C@@H]1CC[C@@H](C)C[C@H]1O + CC(O)CO
Settings	viscosity [mPa·s]
298.15 K, 101.33 kPa, x1 = 0.5	81.72
